From patent US7452688B2, “Transformed cell with enhanced sensitivity to antifungal compound and use thereof” (Sumitomo Chemical Company, Limited, priority 2002, dated 2008)

Tests used:
Type in all cases: cell-based, Saccharomyces cerevisiae
[1] = tested on: transformed budding yeast TM182-RsOS1; experiment: Antifungal compound sensitivity test of transformed budding yeast TM182-RsOS1 (Example 19); settings: for Degree of growth of budding yeast TM182-RsOS1 Gal-Ura-Leu medium: control medium, 30° C. 42.5 hours; for Degree of growth of budding yeast TM182-RsOS1 Gul-Ura-Leu medium: 30° C. 26.8 hours
Description: Similarly, the transformed budding yeast TM182-RsOS1 prepared in Example 18 was cultured at 30° C. for 18 hours in a Glu-Ura-Leu medium. The absorbance at 600 nm of the grown transformed budding yeast in a cell suspension was measured, and a cell suspension diluted with sterilized distilled water to the absorbance of 0.1 was prepared. Further, a cell suspension in which the transformed budding yeast TM182-RsOS1 was diluted 50-fold with a Glu-Ura-Leu medium. As a control, the transformed budding yeast TM182-RsOS1 was cultured at 30° C. for 18 hours in a Gal-Ura-Leu medium. The absorbance at 600 nm of the grown transformed budding yeast in a cell suspension was measured, and a cell suspension diluted with sterilized distilled water to the absorbance of 0.1 was prepared. Further, a cell suspension in which the transformed budding yeast TM182-RsOS1 was diluted 50-fold with a Gal-Ura-Leu medium.
A solution in which each of Compounds (1) to (5) was dissolved in dimethylsulfoxide (DMSO) to the concentration of 600 ppm, and a solution in which each of Compounds (6) and (7) was dissolved in dimethylsulfoxide (DMSO) to the concentration of 60 ppm were prepared, and two microplates were prepared in which each 2.0 μL per well of the Compound-DMSO solution and DMSO as a control were dispensed into 2 wells. In one microplate among them, each 100 μL of cell suspensions of the transformed budding yeast TM182-RsOS1 which had been prepared by dilution with a Glu-Ura-Leu medium as described above was dispensed, and cultured by allowing to stand at 30° C. for 26.8 hours. In another microplate, as described above, as a control, each 100 μL of cell suspensions of the transformed budding yeast TM182-RsOS1 which had been prepared by dilution with a Gal-Ura-Leu medium was dispensed, and cultured at 30° C. for 42.5 hours. After culturing the absorbance at 600 nm of each well was measured with a microplate reader.
(§1) A degree of growth of the transformed budding yeast is expressed as a relative value in percentage, letting the absorbance at 600 nm at the concentration of the Compound of 0 ppm to be 100. It was confirmed that an inhibiting degree of growth of the transformed budding yeast TM182-RsOS1 by each test substance was grater than an inhibiting degree of growth of the transformed budding yeast AH22-RsOS1 by each test substance, and the transformed budding yeast TM182-RsOS1 was a transformed cell with the enhanced sensitivity to an antifungal compound as compared with the transformed budding yeast AH22-RsOS1.

[2] = tested on: transformed budding yeast TM182-StOS1; experiment: Antifungal compound sensitivity test of transformed budding yeast TM182-StOS1 (Example 16); settings: for Degree of growth of budding yeast TM182-StOS1 Gal-Ura-Leu medium: control medium, 30° C. 49.5 hours; for Degree of growth of budding yeast TM182-StOS1 Gul-Ura-Leu medium: 30° C. 26.5 hours
Description: Similarly, the transformed budding yeast TM182-StOS1 prepared in Example 15 was cultured at 30° C. for 18 hours in a Glu-Ura-Leu medium. The absorbance at 600 nm of the grown transformed budding yeast in a cell suspension was measured, and a cell suspension diluted with sterilized distilled water to the absorbance of 0.1 was prepared. Further, a cell suspension in which the transformed budding yeast TM182-StOS1 was diluted 50-fold with a Glu-Ura-Leu medium and, as a control, a cell suspension in which the yeast was diluted 50-fold with a Gal-Ura-Leu medium were prepared.
A solution in which each of Compounds (1) to (3) was dissolved in dimethylsulfoxide (DMSO) to the concentration of 6 ppm, a solution in which each of Compounds (4) and (5) was dissolved in dimethylsulfoxide (DMSO) to the concentration of 2000 ppm, and a solution in which each of Compounds (6) and (7) was dissolved in dimethylsulfoxide (DMSO) to the concentration of 20 ppm were prepared, and two microplates were prepared in which each 2.0 μL per well of the Compound-DMSO solution and DMSO as a control were dispensed into 2 wells. In one microplate among them, each 100 μL of cell suspensions of the transformed budding yeast TM182-StOS1 which had been prepared by dilution with a Glu-Ura-Leu medium as described above was dispensed, and cultured by allowing to stand at 30° C. for 26.5 hours. In another microplate, as described above, as a control, each 100 μL of cell suspensions of the transformed budding yeast TM182-StOS1 which had been prepared by dilution with a Gal-Ura-Leu medium was dispensed, and cultured at 30° C. for 49.5 hours. After culturing, the absorbance at 600 nm of each well was measured with a microplate reader.
as §1, with “TM182-StOS1” for “TM182-RsOS1”, “AH22-StOS1” for “AH22-RsOS1”, “AH22-StOS1.” for “AH22-RsOS1.”

[3] = tested on: transformed budding yeast AH22-RsOS1; experiment: Antifungal compound sensitivity test, transformed budding yeast AH22-RsOS1 (Example 19); settings: 30° C. 29.8 hours, relative value in percentage
Description: The transformed budding yeast AH22-RsOS1 prepared in Example 18 was cultured while shaking at 30° C. for 18 hours in a Glu-Leu medium. As a control, the AH22 strain was similarly cultured while shaking at 30° C. for 18 hours in a Glu medium. The absorbance at 600 nm of each grown transformed budding yeast in a cell suspension was measured, and cell suspension diluted with sterilized distilled water to the absorbance of 0.1 was prepared. Further, a cell suspension in which the aforementioned cell suspension of the transformed budding yeast AH22-RsOS1 was diluted 50-fold with a Glu-Leu medium, and a cell suspension in which the aforementioned cell suspension of the AH22 strain was diluted 50-fold with a Glu medium were prepared.
A solution in which each of Compounds (1) to (5) was dissolved in dimethylsulfoxide (DMSO) to the concentration of 600 ppm, and a solution in which Compounds (6) and (7) was dissolved in dimethylsulfoxide (DMSO) to the concentration of 60 ppm were prepared, and two microplates were prepared in which each 1.0 μL per well of the Compound solution and DMSO as a control were dispensed. In one microplate among them, each 100 μL of cell suspensions of the transformed budding yeast AH22-RsOS1 which had been prepared by dilution as described above was dispensed, and cultured by allowing to stand at 30° C. for 29.8 hours. In another microplate, each 100 μL of cell suspensions of the control yeast AH22 strain which had been prepared by dilution as described above was dispensed, and cultured by allowing to stand at 30° C. for 24.8 hours. After culturing, the absorbance at 600 nm of each well was measured with a microplate reader.
as §1

[4] = tested on: transformed budding yeast TM182-BcOS1-I365S; experiment: Antifungal compound sensitivity test of transformed budding yeast TM182-BcOS1-I365S (Example 6); settings: final concentration 6 ppm, 30° C. 67 hours; for Degree of growth of budding yeast (%) TM182-BcOS1-I365S Gal-Ura-Leu medium: control medium

SMILES	Degree of growth of budding yeast TM182-RsOS1 Gal-Ura-Leu medium ([1]; final concentration 6.0 ppm) [%]	Degree of growth of budding yeast TM182-RsOS1 Gul-Ura-Leu medium ([1]; final concentration 6.0 ppm) [%]	Degree of growth of budding yeast TM182-StOS1 Gal-Ura-Leu medium ([2]; final concentration 0.6 ppm) [%]	Degree of growth of budding yeast TM182-StOS1 Gul-Ura-Leu medium ([2]; final concentration 0.6 ppm) [%]	Degree of growth of budding yeast AH22-RsOS1 Glu-Leu medium ([3]; final concentration 6.0 ppm) [%]	Degree of growth of budding yeast (%) TM182-BcOS1-I365S Gal-Ura-Leu medium [4] [%]	Degree of growth of budding yeast (%) TM182-BcOS1-I365S Glu-Ura-Leu medium [4] [%]	Degree of growth of budding yeast TM182-RsOS1 Gal-Ura-Leu medium ([1]; final concentration 0.6 ppm) [%]	Degree of growth of budding yeast TM182-RsOS1 Gul-Ura-Leu medium ([1]; final concentration 0.6 ppm) [%]	Degree of growth of budding yeast TM182-StOS1 Gal-Ura-Leu medium ([2]; final concentration 0.2 ppm) [%]	Degree of growth of budding yeast TM182-StOS1 Gul-Ura-Leu medium ([2]; final concentration 0.2 ppm) [%]	Degree of growth of budding yeast AH22-RsOS1 Glu-Leu medium ([3]; final concentration 0.6 ppm) [%]	Degree of growth of budding yeast TM182-StOS1 Gal-Ura-Leu medium ([2]; final concentration 20 ppm) [%]	Degree of growth of budding yeast TM182-StOS1 Gul-Ura-Leu medium ([2]; final concentration 20 ppm) [%]
C=CC1(C)OC(=O)N(c2cc(Cl)cc(Cl)c2)C1=O (centres unmarked) [Compound (3), Vinclozolin]	101	27	94	19	101	92	9							
N#Cc1c[nH]cc1-c1cccc2c1OC(F)(F)O2 [Compound (6), Fludioxonil]								100	12	97	6	79		
O=[N+]([O-])c1c(Cl)c(Cl)c(Cl)c(Cl)c1Cl [Compound (4), Quintozene]	88	17			89								99	7
CC12CC1(C)C(=O)N(c1cc(Cl)cc(Cl)c1)C2=O (centres unmarked) [Compound (1), Procymidone]	108	15	101	67	103	99	9							
COP(=S)(OC)Oc1c(Cl)cc(C)cc1Cl [Compound (5), Tolclofos-methyl]	101	9			85								74	6
N#Cc1c[nH]cc1-c1cccc(Cl)c1Cl [Compound (7), Fenpiclonil]								99	31	91	9	101		
CC(C)NC(=O)N1CC(=O)N(c2cc(Cl)cc(Cl)c2)C1=O [Compound (2), Iprodione]	96	11	97	23	101	88	11							
